Source: patent US20220211477A1, “SURGICAL SYSTEM AND METHODS OF USE” (priority 2021, published 2022)

How the values were obtained:
myofibroblast formation = settings: capsular contracture with breast implants, Ajmal et al. (2003); cited from earlier work
fibrinolysis = experiment: prevention / reversal of fibrinolysis; settings: one tenth of the doses used in the non-GLP acute porcine study

| Compound | myofibroblast formation (myofibroblast formation) | effect in reversing fibrinolysis (fibrinolysis) |
| --- | --- | --- |
| O=S(=O)([O-])CCS.[Na+] [MESNA, sodium 2-mercaptoethane sulfonate] | diminish myofibroblast formation | – |
| NC[C@H]1CC[C@H](C(=O)O)CC1 [tranexamic acid, trans-4-(aminomethyl)cyclohexanecarboxylic acid] | – | effective in reversing fibrinolysis |
